Read-outs that look alike come from different tables or passages of the source.
Experiments:
[1] = system: IGF1 secretion by human fallopian epithelium; test: hIGF1 immunoblot of fallopian epithelium conditioned medium; type: cell-based
Protocol: (§1) Human fallopian tissue was obtained from routine hysterectomies from women in their reproductive years (ages range from 26 to 50 years old) and who had not undergone exogenous hormonal treatment for at least three months prior to surgery. Informed consent was obtained from each patient and approval granted by the ethics committee of the Northwestern University. Human fallopian tissue was kept in the DMEM/F12 medium with 10% FBS on ice and processed within 24 hours. The tissue was washed with warm PBS solution two times before being transferred into warm dissection medium (Liebowitz 15 with 0.5% P/S and 10% FBS). After cleaning connective tissue from outside of the fallopian tissue, the fallopian tube was cut open and the inner epithelia layer was mechanically dissected using forceps. […] Tissue was cultured on 0.4 μm pore Millicell inserts (PICM03050, EMD Millipore Co, Billerica, Mass., USA) twelve-well plates with culture medium in a 37° C. and 5% CO2 incubator. Estrogen (E2) and progesterone (P4) used in tissue culture experiments were purchased from Sigma (St. Louis, Mo.).
(§2) Cultured human fallopian epithelia layers were homogenized with a minipestle in ice-cold lysis buffer (20 mM Tris-HCl, pH 8.0, 137 mM NaCl, 10% glycerol, 1% NP-40, 2 mM EDTA). Lysate normalized for protein content was loaded into NuPAGE 4-12% gradient Bis-Tris precast SDS-PAGE gels and transferred to a nitrocellulose membrane (Life Technologies, Carlsbad, Calif., USA). Blots were probed by polyclonal anti-OVGP1 antibody (LsBio, Cambridge, Mass.) overnight in 4° C. followed by anti-rabbit secondary antibody conjugated to horseradish peroxidase (Zymed, San Francisco, Calif.). Proteins were detected by ECL primer (GE HealthCare Life Sciences, Pittsburgh, Pa.) and exposed to X-ray film (Kodak, Rochester, N.Y.). The same blot was stripped using stripping buffer (Thermo Scientific, Hanover Park, Ill.) and re-probed with monoclonal anti-α-tubulin (Sigma, St. Louis, Mo.) followed by an anti-mouse secondary antibody conjugated to horseradish peroxidase. NIH ImageJ Imaging Software was used to quantify the density of western blot bands. Conditioned medium from fallopian epithelia cultures was collected and probed via western blot analysis using a polyclonal anti-hIGF1 antibody (abcam, Cambridge, Mass.). The blot was detected by the same method described above.
Fallopian epithelia layers cultured on […] inserts were pre-cultured in the alpha-MEM with 0.3% BSA, ITS and 1% P/S medium for two days. Cell culture medium was collected for the glucose ELISA assay (abcam, Cambridge, Mass.). Medium was diluted 1:500 and ELISA was performed according to the protocol provided by the kit. […]

[2] = system: human fallopian tube epithelium; test: Fallopian epithelia cilia beating quantification; type: cell-based; conditions: 7 days culture; P4 added to E2
Protocol: Human fallopian tissue was obtained from routine hysterectomies from women in their reproductive years (ages range from 26 to 50 years old) and who had not undergone exogenous hormonal treatment for at least three months prior to surgery. Informed consent was obtained from each patient and approval granted by the ethics committee of the Northwestern University. Human fallopian tissue was kept in the DMEM/F12 medium with 10% FBS on ice and processed within 24 hours. The tissue was washed with warm PBS solution two times before being transferred into warm dissection medium (Liebowitz 15 with 0.5% P/S and 10% FBS). After cleaning connective tissue from outside of the fallopian tissue, the fallopian tube was cut open and the inner epithelia layer was mechanically dissected using forceps. […]
Fallopian epithelia layers were cultured in estradiol (E2) 1 nM, E2 1 nM+progesterone (P4) 10 nM, E2 0.1 nM+P4 50 nM or with solvent only negative control for 7 days. Cilia beating movies were acquired using an Andor Spinning Disk Confocal with 5 ms exposure time and 5 ms readout time. […] The Multiple Kymograph plugin for the NIH ImageJ software was used to quantify cilia beating frequency. In each movie, 8 clusters of cilia were picked for the cilia beating quantification.

[3] = system: OVGP1 expression in human fallopian epithelium; test: OVGP1 immunoblot of cultured fallopian epithelium lysate; type: cell-based
Protocol: as §1, §2

endometrial cells = test: Cell survival Wst-1 assay in endometrial cells cultured in 2D; type: cell-based, human; conditions: 2D culture, 72 hours
p53 stabilization in FTE = test: 3D human fimbriae culture: p53 immunohistochemistry; type: cell-based; conditions: 2 and 7 days treatment, n=8
Protocol: (§3) Tissues were micro-dissected in alpha-MEM (Gibco, Carlsbad, Calif.) with 1% penicillin-streptomycin (Invitrogen, Carlsbad, Calif.). Individual fimbriae were separated into ˜50 mm^3 pieces. A portion of the tissue was fixed in 2% paraformaldehyde for use as an uncultured control. For optimization studies, fimbriae were cultured without matrix, encapsulated in 0.5% alginate, or encapsulated in 0.5% alginate with 1 mg/ml collagen and 0.1% fibronectin, as previously described for murine cultures (King et al. J Vis Exp. 2011.; herein incorporated by reference in its entirety). For subsequent treatments, 0.5% alginate encapsulated fimbriae were randomly assigned to treatment groups, with at least five fimbriae per condition, per patient, in a 24-well plate containing alpha-MEM and 1% penicillin-streptomycin. […] Prior to fixation, fimbriae were labeled with 10 μM bromodeoxyurine (BrdU, Sigma-Aldrich) for 24 hours to denote proliferating cells. Fimbriae cultures were fixed (2% paraformaldehyde) followed by dehydration in ethanol and xylene, and embedment in paraffin.
Sections (5 μm) were cut and stained via hematoxylin and eosin for morphological analysis or immunohistochemistry was performed to localize proteins of interest as previously described (King et al. Endocr Relat Cancer. 2011. 18:627-42.; herein incorporated by reference in its entirety). Slides were rehydrated through an ethanol gradient, prior to 0.1M sodium citrate retrieval and peroxidase block. […]
Immunohistochemistry images were taken via a Nikon E600 microscope, DXM1200 digital camera and NIS Elements software (Nikon Instruments, Melville, N.Y.). […] BrdU sections were imaged and epithelial cells (CK8 positive) were quantified for proliferation via ImageJ software (NIH, Bethesda, Md.). At least three fimbriae with 200 or more FTE were quantified for each treatment. Analysis of p53 staining was similar, with at least three fimbriae per treatment, per patient analyzed. Samples with p53 expression were quantified utilizing adjacent sections stained for the secretory cell marker PAX8 in a qualitative manner as described.

[4] = system: human fallopian fimbriae FTE; test: 3D human fimbriae culture: FTE proliferation by BrdU labeling; type: cell-based; conditions: insulin 5 μg/ml (ITS), H2O2 1 mM, E2 10 nM, n=6
Protocol: as §3
Sections (5 μm) were cut and stained via hematoxylin and eosin for morphological analysis or immunohistochemistry was performed to localize proteins of interest as previously described (King et al. Endocr Relat Cancer. 2011. 18:627-42.; herein incorporated by reference in its entirety). Slides were rehydrated through an ethanol gradient, prior to 0.1M sodium citrate retrieval and peroxidase block. Tissues probed for BrdU were exposed to 4M HCl and 0.1M NaB4O7(Fisher Scientific) to denature DNA. All immunohistochemical reagents were obtained from Vector Laboratories, Inc (Burlingame, Calif.) unless otherwise stated. Tissues were blocked in 3% bovine serum albumin (Gemini, West Sacramento, Calif.)-TBS/10% serum and incubated with a primary antibody 1:50 acetylated tubulin (Cell Signaling, Cambridge, Mass.); 1:200 BrdU (AbCam, Cambridge, Mass.); 1:100 cytokeratin 8 (CK8, Developmental Studies Hybridoma Bank, Iowa City, Iowa); 1:50 p53 (Santa Cruz, Santa Cruz, Calif.); 1:100 PAX8 (Proteintech, Chicago, Ill.); 1:100 pH2AX (Cell Signaling); or 1:75 PR (Santa Cruz)) overnight at 4°. Tissues were washed in TBS-0.1% Tween and incubated with a secondary antibody (1:200), before being probed with ABC peroxidase standard, followed by detection with 3,3′-diaminobenzidine (DAB) and counterstained with hematoxylin.
Immunohistochemistry images were taken via a Nikon E600 microscope, DXM1200 digital camera and NIS Elements software (Nikon Instruments, Melville, N.Y.). For proliferation analysis, concurrent sections were stained for CK8 and BrdU. BrdU sections were imaged and epithelial cells (CK8 positive) were quantified for proliferation via ImageJ software (NIH, Bethesda, Md.). At least three fimbriae with 200 or more FTE were quantified for each treatment. […] Samples with p53 expression were quantified utilizing adjacent sections stained for the secretory cell marker PAX8 in a qualitative manner as described.

Stage 5b mouse follicles = system: Stage 5b mouse follicles
Protocol: Cisplatin (CDDP) and cyclophosphamide (CTX) were obtained from Sigma-Aldrich (St. Louis, Mo.) and used at final concentrations of: 0.2, 1, and 5 μM. Nalbuphine and Raclopride were obtained from the NIH Clinical Collection (South San Francisco, Calif.) and used at final concentrations of: 0.2, 1, and 5 μM. Corexit EC 9500A was obtained via a Material Transfer Agreement from Nalco (Sugar Land, Tex.). CE was used at final concentrations of: 5 ppm, 10 ppm, 25 ppm, 50 ppm, 75 ppm, 100 ppm, 125 ppm, 150 ppm, 200 ppm, 250 ppm, 300 ppm, 350 ppm and 400 ppm, which correspond to 4.75 mg/L, 9.5 mg/L, 23.75 mg/L, 47.5 mg/L, 71.25 mg/L, 95 mg/L, 118.75 mg/L, 142.5 mg/L, […], 237.5 mg/L, 285 mg/L, 332.5 mg/L and 380 mg/L.
All experiments were performed using CD-1 female mice (Harlan Laboratories, Indianapolis, Ind.) that were housed in a controlled barrier facility at Northwestern University's Center of Comparative Medicine under constant temperature, humidity and light (12 h light/12 h dark). Food and water were provided ad libitum. All animal experiments were approved by the Institutional Animal Care and Use Committee and were in accordance with National Institutes of Health Guidelines. For follicle isolation, ovaries were dissected from 14-15-day-old mice and cut into 4 pieces. The tissue was incubated for 1 hour in L15 media (Invitrogen, Carlsbad, Calif., USA) containing 2% Liberase™ (Roche, Indianapolis, Ind.) and 1% DNase I (Worthington, Lakewood, N.J.). The enzymatic digestion was quenched by rinsing follicles in αMEM Glutamax (Invitrogen) containing 1% Fetal Bovine Serum (FBS, Invitrogen, Carlsbad, Calif.) and 0.5% Pen-Strep (Mediatech, Herndon, Va.). Type 5b multilayer secondary follicles (140-175 μm in diameter) were manually collected and cultured individually in wells of a 96-well plate (Pedersen and Peters, 1968; herein incorporated by reference in its entirety).
Follicles were cultured at 37° C. in a humidified atmosphere of 5% CO2 in air for up to 6 days. All chemical exposures were initiated on day 2 of culture. Half of the culture media was replaced with fresh GM every other day and spent media was stored at −20° C. for use in steroid hormone assays. Follicles were imaged at each media change using a Leica DM IRB inverted microscope equipped with 4× and 20× objectives (Leica Microsystems, Heidelberg, Germany) to assess survival, morphology and growth. Live follicles were defined as those that contained an oocyte surrounded completely by somatic cells. […] The percent of surviving follicles was calculated as the number of live follicles out of the total number of follicles plated. Antral cavity formation was assessed morphologically and characterized by the differentiation of outer layers of mural granulosa cells and inner layers of cumulus granulosa cells surrounding the oocyte as well as the presence of a fluid-filled structure.

[5] = 28 days stepwise E2 and P4 treatment, P4 in the presence of E2

CC(=O)[C@H]1CC[C@H]2[C@@H]3CCC4=CC(=O)CC[C@]4(C)[C@H]3CC[C@]12C [P4, progesterone]
IGF1 secretion ([1]; 7 days culture, 1 nM E2, P4 added to E2): attenuated | IGF1 secretion [1, 5]: suppressed | cilia beating frequency (CBF) [2]: decreased | OVGP1 expression in the fallopian lysate ([3]; 7 days culture, P4 added to E2): suppressed | OVGP1 expression [3, 5]: suppressed

C[C@]12CC[C@H]3[C@@H](CCC4=CC(=O)CC[C@@]43C)[C@@H]1CC[C@@H]2O [testosterone]
toxicity on endometrial cells (cell survival) (endometrial cells): no toxicity

OO [H2O2]
p53 stabilization (p53 stabilization in FTE): no factor notably induced p53 stabilization | FTE proliferation (percentage of total FTE cells, BrdU) ([4]; 2 days in culture): 4.0±1.1% | FTE proliferation (percentage of total FTE cells, BrdU) ([4]; 7 days in culture): 2.2±0.5%

[NH2][Pt]([NH2])([Cl])[Cl] [CDDP, Cisplatin]
concentration at which complete release of the oocyte from the follicle was first observed (Stage 5b mouse follicles): 5000 nM | follicle survival (Stage 5b mouse follicles; 1 μM, day 4 of culture): 76.31% | follicle survival (Stage 5b mouse follicles; 1 μM, day 6 of culture): 58.38% | follicle survival (Stage 5b mouse follicles; 5 μM, day 4 of culture): 47.83% | follicle survival (Stage 5b mouse follicles; 5 μM, day 6 of culture): 12.56%

O=P1(N(CCCl)CCCl)NCCCO1 (centres unmarked) [CTX, cyclophosphamide]
follicle survival (Stage 5b mouse follicles; 0.2 μM, day 6 of culture (treated on day 2)): 71.8% | follicle survival (Stage 5b mouse follicles; 1 μM, day 4 of culture): 57.23% | follicle survival (Stage 5b mouse follicles; 1 μM, day 6 of culture): 32.43% | follicle survival (Stage 5b mouse follicles; 5 μM, day 4 of culture): 36.41% | follicle survival (Stage 5b mouse follicles; 5 μM, day 6 of culture): 11.49% | follicle morphology (Stage 5b mouse follicles; increasing concentrations (0.2, 1, 5 μM)): disorganized follicles with dark granulosa cells and little evidence of antral cavity formation | concentration at which complete release of the oocyte from the follicle was first observed (Stage 5b mouse follicles; most severe phenotype): 1000 nM

Insulin: insulin 5 μg/ml given via ITS supplement (insulin; transferrin; selenite)
p53 stabilization (p53 stabilization in FTE): no factor notably induced p53 stabilization | FTE proliferation (percentage of total FTE cells, BrdU) ([4]; 7 days in culture): 4.1±0.9%

From patent publication US11542475B2, “3D microphysiologic system” (Northwestern University, priority 2014, dated 2023)
